By refractive index is commonly meant a measure of how strongly the sample bends light. By mass density is commonly meant the mass of a sample divided by its volume.

The values below come from the NIST ThermoML archive (doi:10.1021/je2009208).

SMILES strings stand for the structures. Numbers after ± are expanded uncertainties.

A short description of series [1]: refractive index (Na D-line) (dimensionless). Conditions: 293.15 K; 101.33 kPa; Liquid; Standard Abbe refractometry.
For series [2] the following is noted: 298.15 K; 101.33 kPa; Liquid; Vibrating tube method.

Regarding `C=CC#N` [acrylonitrile], the refractive index in series [1] worked out at 1.3908 ± 0.0008. Also, the mass density in series [2] is on record as 800.6 ± 0.2 kg/m3.

As to `CO` [methanol], the refractive index in series [1] came out at 1.3286 ± 0.0008. Further, the mass density in series [2] was found to be 791.3 ± 0.2 kg/m3.

Regarding `O` [water], the refractive index in series [1] is recorded as 1.3333 ± 0.0008.
